Reference: patent US5942663A, “Biocidal proteins” (Zeneca Limited, priority 1991, dated 1999)
Read-outs that look alike come from different tables or passages of the source. No end group written: not given here.

What was measured:
Phoma betae = format: cell-based; details: P betae, 48 hours of incubation
Fusarium culmorum [1] = format: cell-based; details: F culmorum, 48 hours of incubation
Fusarium culmorum [2] = assay: Stability of the antifungal activity of the Mj-AMPs; format: cell-based
Experimental: Antifungal activity was measured by microspectrophotometry as previously described (Broekaert, WF et al; 1990; FEMS Microbiol Lett, 69, 55-60). Routinely, tests were performed with 20 μl of a (filter-sterilized) test solution and 80 μl of a fungal spore suspension (2×10^4 spores/ml) in half strength Potato Dextrose Broth (Difco). Control microcultures contained 20 μl of (sterile) distilled water and 80 μl of the fungal spore suspension. Unless otherwise stated the test organism was Fusarium culmorum and incubation was done at 25° C. for 48 hours. Percent growth inhibition is defined as 100 times the ratio of the corrected absorbance of the control microculture minus the corrected absorbance of the test microculture over the corrected absorbance at 595 nm of the control microculture. The corrected absorbance values equal the absorbance at 595 nm of the culture measured after 48 hours minus the absorbance at 595 nm measured after 30 min. Values of growth inhibition lower than 10% are not indicated on the chromatograms.
Table 1 summarises the results of further testing of the stability of the antifungal activity of the Mj-AMPs. Tests for antifungal activity were performed with 20 μl samples diluted five-fold with growth medium containing Fusarium culmorum spores (2×10^4 spores/ml), according to the assay method given in Example 2. Control samples contained either Mj-AMP1 at 500 μg/ml or Mj-AMP2 at 100 μg/ml in 10 mM sodium phosphate buffer (pH 7). Reduction was done by addition of DTT at 2.5 mM followed by incubation at 37° C. for 2 hours. pH stability was tested in the following buffers: 20 mM glycine-HCl (pH 2 and 3); 20 mM diethanolamine-HCl (pH 10); and 20 mM glycine-NaOH (pH 11). After 1 hour of incubation in the appropriate buffers the samples were dialyzed for 16 hours against 10 mm sodium phosphate buffer (pH 7). For digestions, proteases were added at 100 μg/ml and incubated at 37° C. for 16 hours.

Ascochyta pisi = format: cell-based; details: A pisi, 48 hours of incubation
Botrytis cinerea = format: cell-based; details: B cinerea, 48 hours of incubation
Isoelectric focusing = format: physicochemical; details: isoelectric focusing on Immobiline Dry Strips
Experimental: PAS staining for glycoproteins was done by the method of Zacharius, RM et al (1969; Anal Biochem, 30, 148-152) using ovalbumin (3.2% carbohydrate) as a positive control sample. The pI values of Mj-AMP1 and Mj-AMP2 were determined by isoelectric focusing and found to be about 10.5 for both proteins. Isoelectric focussing was done on precast Immobiline Dry Strips (Pharmacia) using marker proteins in the pI range from 4.7 to 10.6 (Pharmacia).

[3] = system: Fusarium oxysporum f.sp. lycopersici; format: cell-based; details: 48 hours of incubation
Verticillium dahliae = format: cell-based; details: V dahliae, 48 hours of incubation
[4] = system: Pyrenophora tritici-repentis; format: cell-based; details: P tritici-repentis, 48 hours of incubation
Bacillus megaterium = assay: Antibacterial activity in vitro test; format: cell-based; details: B megaterium, 48 hours
Experimental: (§1) The antibacterial activity of the Mj-AMPs was tested against a range of gram-positive and gram-negative bacteria: Bacillus megaterium, Sarcina lutea, Escherichia coli and Erwinia carotovora. β-purothionin and UDA were also tested for comparison (see Example 7). Tests were performed in soft agarose medium containing 1% tryptone and, with or without 1 mM CaCl2 and 50 mM KCl. Absorbance, 595 nm, of the culture was measured after 48 hours.

Escherichia coli = assay: Antibacterial activity in vitro test; format: cell-based; details: E coli, 48 hours
Experimental: as §1

Sarcina lutea = assay: Antibacterial activity in vitro test; format: cell-based; details: S lutea, 48 hours
Experimental: as §1

Erwinia carotovora = assay: Antibacterial activity in vitro test; format: cell-based; details: E carotovora, 48 hours
Experimental: as §1

Nectria haematococca = format: cell-based; details: N haematococca, 48 hours of incubation
[5] = system: Colletotrichum lindemuthianum; format: cell-based; details: C lindemuthianum
Saccharomyces cerevisiae = assay: Inhibitory activity against yeast; format: cell-based; design: key: +++:complete inhibition; +:some inhibition; -:no inhibition
Experimental: The inhibitory activity of Mj-AMPs against yeast, Saccharomyces cerevisiae was tested. The results shown in Table 5 indicate that Mj-AMPs do inhibit the growth of yeast at concentrations of 500 μg/ml or above.

Venturia inaequalis = format: cell-based; details: V inaequalis, 10 days of incubation
[6] = MEDIUM +Ca/K (1 mM CaCl2 and 50 mM KCl)

Mj-AMP1: antimicrobial protein from Mirabilis jalapa seeds, dimer of two 4 kDa subunits, 37 residues, SEQ ID NO:1 (QCIGNGGRCNENVGPPYCCSGFCLRQPGQGYGYCKNR; cysteine pairing not given here; also: homodimer)
IC50 (Phoma betae): 25 mg/L
IC50 (Fusarium culmorum [1]): 30 mg/L
Relative antifungal activity (shown as % of control activity) (Fusarium culmorum [2]; 80° C., 10 min): 100 % of control activity
Relative antifungal activity (shown as % of control activity) (Fusarium culmorum [2]; 90° C., 10 min): 100 % of control activity
Relative antifungal activity (shown as % of control activity) (Fusarium culmorum [2]; 100° C., 10 min): 100 % of control activity
Relative antifungal activity (shown as % of control activity) (Fusarium culmorum [2]; Chymotrypsin digestion, 100 μg/ml, 37° C., 16 hours): 12 % of control activity
Relative antifungal activity (shown as % of control activity) (Fusarium culmorum [2]; Control: Mj-AMP1 500 μg/ml or Mj-AMP2 100 μg/ml in 10 mM sodium phosphate buffer pH 7): 100 % of control activity
Relative antifungal activity (shown as % of control activity) (Fusarium culmorum [2]; Pronase E digestion, 100 μg/ml, 37° C., 16 hours): 50 % of control activity
Relative antifungal activity (shown as % of control activity) (Fusarium culmorum [2]; Proteinase K digestion, 100 μg/ml, 37° C., 16 hours): 100 % of control activity
Relative antifungal activity (shown as % of control activity) (Fusarium culmorum [2]; Reduction: DTT 2.5 mM, 37° C., 2 hours): < 6 % of control activity
Relative antifungal activity (shown as % of control activity) (Fusarium culmorum [2]; Trypsin digestion, 100 μg/ml, 37° C., 16 hours): 75 % of control activity
Sensitivity to protease (in words) (Fusarium culmorum [2]; chymotrypsin): sensitive
Relative antifungal activity (shown as % of control activity) (Fusarium culmorum [2]; pH 2, 60 min): 100 % of control activity
Relative antifungal activity (shown as % of control activity) (Fusarium culmorum [2]; pH 3, 60 min): 100 % of control activity
Relative antifungal activity (shown as % of control activity) (Fusarium culmorum [2]; pH 10, 60 min): 100 % of control activity
Relative antifungal activity (shown as % of control activity) (Fusarium culmorum [2]; pH 11, 60 min): 100 % of control activity
Sensitivity to protease (in words) (Fusarium culmorum [2]; pronase E): resisted almost completely
Sensitivity to protease (in words) (Fusarium culmorum [2]; proteinase K): resisted almost completely
Sensitivity to protease (in words) (Fusarium culmorum [2]; trypsin): resisted almost completely
IC50 (Ascochyta pisi): 200 mg/L
IC50 (Botrytis cinerea): 60 mg/L
pI (Isoelectric focusing): about 10.5
IC50 [3]: 200 mg/L
IC50 (Verticillium dahliae): 12 mg/L
IC50 [4]: 300 mg/L
IC50 (Bacillus megaterium; [6]): 20 mg/L
IC50 (Bacillus megaterium; MEDIUM -Ca/K): 6 mg/L
IC50 (Escherichia coli; [6]): > 500 mg/L
IC50 (Escherichia coli; MEDIUM -Ca/K): > 500 mg/L
IC50 (Sarcina lutea; [6]): > 500 mg/L
IC50 (Sarcina lutea; MEDIUM -Ca/K): 100 mg/L
IC50 (Erwinia carotovora; [6]): > 500 mg/L
IC50 (Erwinia carotovora; MEDIUM -Ca/K): > 500 mg/L
IC50 (Nectria haematococca): 15 mg/L
IC50 ([5]; 48 hours of incubation): 6 mg/L
IC50 ([5]; after 72 hours): 12 mg/L
Inhibitory activity against yeast (Saccharomyces cerevisiae; with Ca/K, 5 μg/ml): -
Inhibitory activity against yeast (Saccharomyces cerevisiae; with Ca/K, 50 μg/ml): -
Inhibitory activity against yeast (Saccharomyces cerevisiae; with Ca/K, 500 μg/ml): +++
Inhibitory activity against yeast (Saccharomyces cerevisiae; without Ca/K, 5 μg/ml): +
Inhibitory activity against yeast (Saccharomyces cerevisiae; without Ca/K, 50 μg/ml): +++
Inhibitory activity against yeast (Saccharomyces cerevisiae; without Ca/K, 500 μg/ml): +++
IC50 (Venturia inaequalis): 12 mg/L
